Experimental findings from patent publication US20240025883A1, “PYRIMIDIN-2-YL SULFONAMIDE DERIVATIVES” (Hoffmann-La Roche Inc., priority 2021, published 2024) are described below.

Series [1] in a line: Microsome clearance assay, human. To be noted: microsomes.
Experimental: (§1) Incubations at a test compound of 1 mM in microsomes (0.5 mg/mL) plus cofactor NADPH are performed in 96 well plates at 37° C. on a TECAN (Tecan Group Ltd, Switzerland) automated liquid handling system. The final concentration of the test compound in the incubation is 1 microM. After a 10 minutes preincubation step of the test compound with the microsomes, the enzymatic reaction is started by the addition of cofactors. At 1, 3, 6, 9, 15, 25, 35 and 45 minutes, aliquots of the incubations are removed and quenched with 1:3 (v/v) acetonitrile containing internal standards. Samples are then cooled and centrifuged before analysis of the supernatant by LC-MS/MS.
Series [2] is described as follows: Microsome clearance assay, mouse. Particulars: microsomes.
Experimental: as §1
The target in series [3] is human GPR17 short isoform (Homo sapiens (Human), UniProt Q13304). Kind of series: GPR17 cAMP assay (hGPR17 cAMP, antagonist mode against EC80 of MDL29,951). In kind it is cell-based. Particulars: CHO-K1 cells stably expressing human GPR17 short isoform; EC80 of agonist MDL29,951; forskolin 15 μM. Summed up:
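cAMP was read by competitive TR-FRET after a 30 min room-temperature stimulation: antagonists plus EC80 MDL29,951 and 0.5 mM IBMX, followed 5 min later by 15 μM forskolin. Cells were CHO-K1 with stable human GPR17 short isoform in HBSS/HEPES/BSA, pH 7.4; percent activity versus reference antagonist fitted sigmoidally.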
(cAMP levels reflect the balance of adenylyl cyclase and phosphodiesterase activity.)

Series [4] in a line: Microsome clearance assay, rat. To be noted: microsomes.
Experimental: as §1
The conditions of series [5]: microsomes, 1 µM.
Experimental: as §1
The conditions of series [6]: microsomes, 1 µM. The source holds these as a separate data set.
Experimental: as §1
For series [7] the following is noted: microsomes, 1 µM. This is another data set of the same source.
Experimental: as §1

human GPR17 short isoform, sequence (Q13304 29-367): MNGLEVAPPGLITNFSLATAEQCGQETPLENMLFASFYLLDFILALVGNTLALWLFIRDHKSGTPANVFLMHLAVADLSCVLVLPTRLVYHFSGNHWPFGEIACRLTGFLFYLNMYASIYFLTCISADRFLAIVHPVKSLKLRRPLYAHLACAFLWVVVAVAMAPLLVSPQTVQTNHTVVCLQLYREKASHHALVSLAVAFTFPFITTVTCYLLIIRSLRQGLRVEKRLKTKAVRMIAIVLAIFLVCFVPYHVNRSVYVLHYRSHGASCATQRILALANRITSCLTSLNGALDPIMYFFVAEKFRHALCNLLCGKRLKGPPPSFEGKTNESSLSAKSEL

For the compound `COc1nc(NS(=O)(=O)c2c[nH]c3cc(Cl)ccc23)ncc1OCCF` [Example 1, 6-chloro-N-[5-(2-fluoroethoxy)-4-methoxy-pyrimidin-2-yl]-1H-indole-3-sulfonamide], the results for the intrinsic clearance (microsomal CLint) at 1 µM in series [1], in series [2] and in series [4] were 16 µL/min/mg, 10 µL/min/mg and 29 µL/min/mg, respectively. Moreover, the IC50 (commonly the midpoint of a concentration-inhibition curve) in series [3] worked out at 69 nM.

Turning to `COc1nc(NS(=O)(=O)c2c[nH]c3cc(Cl)ccc23)ncc1Br` [Example 22, N-(5-bromo-4-methoxy-pyrimidin-2-yl)-6-chloro-1H-indole-3-sulfonamide], the microsomal CLint at 1 µM in series [1], in series [2] and in series [4] was 10 µL/min/mg throughout. This compound also returned an IC50 in series [3] of 515 nM.

Take `COc1nc(NS(=O)(=O)c2c[nH]c3cc(Cl)ccc23)ncc1CC(F)F` [Example 47, 6-chloro-N-[5-(2,2-difluoroethyl)-4-methoxy-pyrimidin-2-yl]-1H-indole-3-sulfonamide]: the values for the microsomal CLint at 1 µM in series [1], in series [2] and in series [4] were 10 µL/min/mg, 10 µL/min/mg and 110 µL/min/mg, respectively. Further, in series [3], the IC50 came out at 19 nM.

For `COc1nc(NS(=O)(=O)c2c[nH]c3c(F)c(Cl)ccc23)ncc1OCC(F)F` [Example 123, 6-chloro-N-[5-(2,2-difluoroethoxy)-4-methoxy-pyrimidin-2-yl]-7-fluoro-1H-indole-3-sulfonamide], the intrinsic metabolic clearance (microsomal CLint) at 1 µM in series [1], in series [2] and in series [4] was 10 µL/min/mg in each case. The IC50 in series [3] was determined as 91 nM.

With `COc1nc(NS(=O)(=O)c2c[nH]c3cc(Cl)ccc23)ncc1CCC#N` [Example 179, 6-chloro-N-[5-(2-cyanoethyl)-4-methoxy-pyrimidin-2-yl]-1H-indole-3-sulfonamide], the microsomal CLint (in general, the rate of metabolic loss divided by the concentration) at 1 µM in series [1] is 10 µL/min/mg; in series [2], 10 µL/min/mg; in series [4] it was 33 µL/min/mg. The 50% inhibitory concentration (IC50) in series [3] came out at 31 nM.

Regarding `COc1nc(NS(=O)(=O)c2c[nH]c3cc(Cl)ccc23)c(F)cc1OCCF` [RE-A, 6-chloro-N-[3-fluoro-5-(2-fluoroethoxy)-6-methoxy-2-pyridyl]-1H-indole-3-sulfonamide, reference compound], the values for the intrinsic clearance (microsomal CLint) at 1 µM in series [1], in series [2] and in series [4] were 121 µL/min/mg, 77 µL/min/mg and 357 µL/min/mg, respectively.

As for `COc1nc(NS(=O)(=O)c2c[nH]c3c(F)c(Cl)ccc23)c(F)cc1OCC(F)F` [RE-B, reference compound], the microsomal CLint at 1 µM stood at 11 µL/min/mg in series [1], 26 µL/min/mg in series [2] and 65 µL/min/mg in series [4].

As for `COc1nc(NS(=O)(=O)c2c[nH]c3cc(Cl)ccc23)c(F)cc1CC(F)F` [RE-C, 6-chloro-N-[5-(2,2-difluoroethyl)-3-fluoro-6-methoxy-2-pyridyl]-1H-indole-3-sulfonamide, reference compound], the intrinsic clearance (microsomal CLint) at 1 µM in series [1] stood at 35 µL/min/mg; in series [2], 81 µL/min/mg; in series [4] it was 286 µL/min/mg.

Take `COc1nc(NS(=O)(=O)c2c[nH]c3cc(Cl)ccc23)c(F)cc1CCC#N` [RE-D, 6-chloro-N-[5-(2-cyanoethyl)-3-fluoro-6-methoxy-2-pyridyl]-1H-indole-3-sulfonamide, reference compound]: the values for the microsomal CLint at 1 µM in series [1], in series [2] and in series [4] were 103 µL/min/mg, 121 µL/min/mg and 869 µL/min/mg, respectively.

Turning to “N-(4-bromo-2-fluoro-5-methoxy-phenyl)-6-chloro-1H-indole-3-sulfonamide [RE-F]”, in series [5], the “Microsomal Clearance human” value is 29 μL/min/mg protein. The “Microsomal Clearance mouse” value in series [6] is on record as 129 μL/min/mg protein. Moreover, the “Microsomal Clearance rat” value in series [7] is on record as 166 μL/min/mg protein.
